Laboratory results published in ChEMBL document CHEMBL1201862, “PubChem BioAssay data set” (2004).
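Cells were grown in 96-well plates and exposed to each compound for 48 hours at five concentrations; endpoints were interpolated linearly between bracketing concentrations, or set to the highest concentration if not reached. Here, GI50 denotes the concentration required for 50% inhibition of growth.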 Calls of active or inactive are those of the source. No stated cut-off is given here; in the data, active = GI50 up to about 1.1 µM and inactive = higher.

Experiments:
Test in all cases: inhibition of tumour cell growth, NCI panel, 48 h
A549 = test system: A549
CAKI-1 = test system: CAKI-1
CCRF-CEM = test system: CCRF-CEM
COLO 205 = test system: COLO 205
DLD-1 = test system: DLD-1
DMS-114 = test system: DMS-114
DMS-273 = test system: DMS-273
EKVX = test system: EKVX
HCC 2998 = test system: HCC 2998
HCT-116 = test system: HCT-116
HCT-15 = test system: HCT-15
HL-60 = test system: HL-60
HOP-18 = test system: HOP-18
HOP-92 = test system: HOP-92
HT-29 = test system: HT-29
IGROV-1 = test system: IGROV-1
K562 = test system: K562
KM-20L2 = test system: KM-20L2
KM12 = test system: KM12
LOX IMVI = test system: LOX IMVI
M19-MEL = test system: M19-MEL
MCF7 = test system: MCF7
MOLT-4 = test system: MOLT-4
Malme-3M = test system: Malme-3M
NCI-H226 = test system: NCI-H226
NCI-H23 = test system: NCI-H23
NCI-H460 = test system: NCI-H460
NCI-H522 = test system: NCI-H522
NCI/ADR-RES = test system: NCI/ADR-RES
OVCAR-3 = test system: OVCAR-3
OVCAR-4 = test system: OVCAR-4
OVCAR-5 = test system: OVCAR-5
OVCAR-8 = test system: OVCAR-8
RPMI-8226 = test system: RPMI-8226
RXF 393 = test system: RXF 393
SF-268 = test system: SF-268
SF-295 = test system: SF-295
SF-539 = test system: SF-539
SK-MEL-28 = test system: SK-MEL-28
SK-MEL-2 = test system: SK-MEL-2
SK-MEL-5 = test system: SK-MEL-5
SK-OV-3 = test system: SK-OV-3
SN12C = test system: SN12C
SNB-19 = test system: SNB-19
SNB-75 = test system: SNB-75
SNB-78 = test system: SNB-78
SW-620 = test system: SW-620
U-251 = test system: U-251
UACC-257 = test system: UACC-257
UACC-62 = test system: UACC-62
UO-31 = test system: UO-31
XF498 = test system: XF498
786-0 = test system: 786-0
ACHN = test system: ACHN
HOP-62 = test system: HOP-62
LXFL 529 = test system: LXFL 529
M14 = test system: M14
SR = test system: SR
TK-10 = test system: TK-10
DU-145 = test system: DU-145
Hs-578T = test system: Hs-578T
MDA-MB-435 = test system: MDA-MB-435
T47D = test system: T47D

**Q.** Which results are given for `CC1(C)N=C(N)N=C(N)N1c1ccc(CCc2ccccc2)cc1`?
**A.** GI50 (A549): 0.46 µM (active); GI50 (CAKI-1): 21.6 µM (inactive); GI50 (CCRF-CEM): 1.91 µM (inactive); GI50 (COLO 205): 1.36 µM (inactive); GI50 (DLD-1): 15.7 µM (inactive); GI50 (DMS-114): 0.647 µM (active); GI50 (DMS-273): 0.7 µM (active); GI50 (EKVX): 0.622 µM (active); GI50 (HCC 2998): 2.14 µM (inactive); GI50 (HCT-116): 0.619 µM (active); GI50 (HCT-15): 37.9 µM; GI50 (HL-60): 13.3 µM (inactive); GI50 (HOP-18): 45.7 µM (inactive); GI50 (HOP-92): 22.1 µM (inactive); GI50 (HT-29): 0.565 µM (active); GI50 (IGROV-1): 0.348 µM (active); GI50 (K562): 2.23 µM (inactive); GI50 (KM-20L2): 1.16 µM (inactive); GI50 (KM12): 1.42 µM (inactive); GI50 (LOX IMVI): 0.675 µM (active); GI50 (M19-MEL): 2.84 µM (inactive); GI50 (MCF7): 1.32 µM (inactive); GI50 (MOLT-4): 3.61 µM (inactive); GI50 (Malme-3M): 2.2 µM (inactive); GI50 (NCI-H226): 14.2 µM (inactive); GI50 (NCI-H23): 1.43 µM (inactive); GI50 (NCI-H460): 0.508 µM (active); GI50 (NCI-H522): 3.03 µM (inactive); GI50 (NCI/ADR-RES): > 100 µM (inactive); GI50 (OVCAR-3): 1.79 µM (inactive); GI50 (OVCAR-4): 3.53 µM (inactive); GI50 (OVCAR-5): 1.92 µM (inactive); GI50 (OVCAR-8): 2.53 µM (inactive); GI50 (RPMI-8226): 17.4 µM (inactive); GI50 (RXF 393): > 20.9 µM (inactive); GI50 (SF-268): 0.618 µM (active); GI50 (SF-295): 2.17 µM (inactive); GI50 (SF-539): 2.78 µM (inactive); GI50 (SK-MEL-28): 6.01 µM (inactive); GI50 (SK-MEL-2): 8.85 µM (inactive); GI50 (SK-MEL-5): 0.741 µM (active); GI50 (SK-OV-3): 48.4 µM (inactive); GI50 (SN12C): 0.759 µM (active); GI50 (SNB-19): 1.14 µM (inactive); GI50 (SNB-75): 28.5 µM (inactive); GI50 (SNB-78): 13.6 µM (inactive); GI50 (SW-620): 0.301 µM (active); GI50 (U-251): 0.435 µM (active); GI50 (UACC-257): 2.96 µM (inactive); GI50 (UACC-62): 1.02 µM (active); GI50 (UO-31): > 34.1 µM (inactive); GI50 (XF498): < 0.01 µM (active)

**Q.** For `COc1cc(-c2cc(O)c3cc4c(cc3n2)OCO4)cc(OC)c1OC`, which GI50 (786-0) is on record?
**A.** > 100 µM (inactive)

**Q.** What about the GI50 (A549) of the same compound?
**A.** > 100 µM (inactive)

**Q.** And the GI50 (ACHN)?
**A.** 34.7 µM (inactive)

**Q.** What about the GI50 (CAKI-1) of the same compound?
**A.** > 100 µM (inactive)

**Q.** And the GI50 (CCRF-CEM)?
**A.** > 100 µM (inactive)

**Q.** What about the GI50 (COLO 205) of the same compound?
**A.** > 100 µM (inactive)

**Q.** And the GI50 (DLD-1)?
**A.** > 100 µM (inactive)

**Q.** And the GI50 (DMS-273)?
**A.** 46.2 µM (inactive)

**Q.** And the GI50 (EKVX)?
**A.** > 100 µM (inactive)

**Q.** What about the GI50 (HCC 2998) of the same compound?
**A.** > 100 µM (inactive)

**Q.** And the GI50 (HCT-15)?
**A.** > 100 µM

**Q.** What about the GI50 (HL-60) of the same compound?
**A.** > 100 µM (inactive)

**Q.** And the GI50 (HOP-18)?
**A.** 72.8 µM (inactive)

**Q.** And the GI50 (HOP-62)?
**A.** 24.5 µM (inactive)

**Q.** And the GI50 (HOP-92)?
**A.** 20.7 µM (inactive)

**Q.** And the GI50 (HT-29)?
**A.** > 100 µM (inactive)

**Q.** What about the GI50 (IGROV-1) of the same compound?
**A.** > 100 µM (inactive)

**Q.** And the GI50 (K562)?
**A.** > 100 µM (inactive)

**Q.** And the GI50 (KM12)?
**A.** > 100 µM (inactive)

**Q.** What about the GI50 (LOX IMVI) of the same compound?
**A.** 59.3 µM (inactive)

**Q.** What about the GI50 (LXFL 529) of the same compound?
**A.** > 100 µM (inactive)

**Q.** What about the GI50 (M14) of the same compound?
**A.** > 100 µM (inactive)

**Q.** What about the GI50 (M19-MEL) of the same compound?
**A.** > 100 µM (inactive)

**Q.** And the GI50 (MOLT-4)?
**A.** > 100 µM (inactive)

**Q.** And the GI50 (Malme-3M)?
**A.** > 100 µM (inactive)

**Q.** What about the GI50 (NCI-H23) of the same compound?
**A.** 56.2 µM (inactive)

**Q.** And the GI50 (NCI-H460)?
**A.** > 100 µM (inactive)

**Q.** What about the GI50 (NCI-H522) of the same compound?
**A.** 62.7 µM (inactive)

**Q.** And the GI50 (OVCAR-4)?
**A.** > 100 µM (inactive)

**Q.** What about the GI50 (OVCAR-8) of the same compound?
**A.** 75.9 µM (inactive)

**Q.** What about the GI50 (RPMI-8226) of the same compound?
**A.** > 100 µM (inactive)

**Q.** And the GI50 (SF-539)?
**A.** 54.8 µM (inactive)

**Q.** And the GI50 (SK-MEL-28)?
**A.** > 100 µM (inactive)

**Q.** What about the GI50 (SK-MEL-2) of the same compound?
**A.** 92.7 µM (inactive)

**Q.** And the GI50 (SK-MEL-5)?
**A.** > 100 µM (inactive)

**Q.** What about the GI50 (SK-OV-3) of the same compound?
**A.** 37.5 µM (inactive)

**Q.** And the GI50 (SN12C)?
**A.** 70.1 µM (inactive)

**Q.** What about the GI50 (SNB-19) of the same compound?
**A.** 40.3 µM (inactive)

**Q.** What about the GI50 (SNB-75) of the same compound?
**A.** > 100 µM (inactive)

**Q.** And the GI50 (SNB-78)?
**A.** > 100 µM (inactive)

**Q.** What about the GI50 (SR) of the same compound?
**A.** 71 µM (inactive)

**Q.** What about the GI50 (SW-620) of the same compound?
**A.** > 100 µM (inactive)

**Q.** And the GI50 (TK-10)?
**A.** > 100 µM (inactive)

**Q.** And the GI50 (U-251)?
**A.** 60 µM (inactive)

**Q.** What about the GI50 (UACC-62) of the same compound?
**A.** 51.5 µM (inactive)

**Q.** And the GI50 (UO-31)?
**A.** > 100 µM (inactive)

**Q.** And the GI50 (XF498)?
**A.** 29.8 µM (inactive)

**Q.** For `O=C1C(Cl)=C(N2CCN(CCOCCO)CC2)C(=O)c2c(O)ccc(O)c21`, which GI50 (A549) is on record?
**A.** 2.71 µM (inactive)

**Q.** And the GI50 (DLD-1)?
**A.** 0.195 µM (active)

**Q.** What about the GI50 (DMS-273) of the same compound?
**A.** 1.05 µM (active)

**Q.** What about the GI50 (DU-145) of the same compound?
**A.** 1.85 µM (inactive)

**Q.** What about the GI50 (HCC 2998) of the same compound?
**A.** 1.93 µM (inactive)

**Q.** And the GI50 (HCT-15)?
**A.** 0.292 µM

**Q.** What about the GI50 (HOP-18) of the same compound?
**A.** 1.38 µM (inactive)

**Q.** And the GI50 (HOP-92)?
**A.** 0.231 µM (active)

**Q.** What about the GI50 (Hs-578T) of the same compound?
**A.** 2.64 µM (inactive)

**Q.** What about the GI50 (KM-20L2) of the same compound?
**A.** 0.716 µM (active)

**Q.** And the GI50 (LXFL 529)?
**A.** 0.224 µM (active)

**Q.** And the GI50 (MDA-MB-435)?
**A.** 0.295 µM (active)

**Q.** What about the GI50 (NCI-H226) of the same compound?
**A.** 1.99 µM (inactive)

**Q.** What about the GI50 (NCI-H460) of the same compound?
**A.** 3.1 µM (inactive)

**Q.** What about the GI50 (NCI-H522) of the same compound?
**A.** 0.174 µM (active)

**Q.** And the GI50 (OVCAR-5)?
**A.** 1.79 µM (inactive)

**Q.** And the GI50 (SF-539)?
**A.** 1.3 µM (inactive)

**Q.** And the GI50 (SK-MEL-2)?
**A.** 0.404 µM (active)

**Q.** And the GI50 (SNB-75)?
**A.** 1.41 µM (inactive)

**Q.** What about the GI50 (SNB-78) of the same compound?
**A.** 0.363 µM (active)

**Q.** And the GI50 (T47D)?
**A.** 0.438 µM (active)

**Q.** What about the GI50 (XF498) of the same compound?
**A.** 0.557 µM (active)
